# Calls of active or inactive are those of the source. No cut-off for these calls is given here.
# Assays:
# HEK293T = assay: Stabilization of A2A/D2 receptor heterodimerization in human HEK-293T cells cotransfected with A2AR-Rluc and D2R-YFP at 100 nM assessed as increase in heteromer stabilization by measuring yellow fluorescent protein level by BRET assay relative to control; type: cell-based
# CHO [1] = assay: Antagonist activity at chinese hamster D2 receptor expressed in CHO cells assessed as su-manirole induced response at 0.1 nM and measured for 30 mins by dynamic mass redistribution by DMR assay relative to control; type: cell-based; conditions: Cricetulus griseus, filed as antagonist
# CHO [2] = assay: Antagonist activity at chinese hamster A2A receptor expressed in CHO cells assessed as CGS 21 680 induced response at 10 nM and measured for 30 mins by dynamic mass redistribution by DMR assay; type: cell-based; conditions: Cricetulus griseus, filed as antagonist
# Ovis aries [3] = organism: Ovis aries; assay: Displacement of [3H]YM-09151-2 from dopamine D2 receptor from sheep brain striatum membrane assessed as first protomer region in unoccupied dimer incubated for 2 hrs by radioligand based competition binding assay; type: cell membranes
# Ovis aries [4] = organism: Ovis aries; assay: Displacement of [3H]- ZM 241 385 from A2A receptor from sheep brain striatum membrane assessed as first protomer region in the unoccupied dimer incubated for 2 hrs by radioligand based competition binding assay; type: cell membranes
# Ovis aries [5] = organism: Ovis aries; assay: Displacement of [3H]- ZM 241 385 from A2A receptor from sheep brain striatum membrane assessed as first protomer region in the unoccupied dimer in presence of TM5-TAT peptide by radioligand based competition binding assay; type: cell membranes
# Ovis aries [6] = organism: Ovis aries; assay: Displacement of [3H]- ZM 241 385 from A2A receptor from sheep brain striatum membrane assessed as first protomer region in the unoccupied dimer in presence of TM3-TAT peptide by radioligand based competition binding assay; type: cell membranes
SMILES,Activity (HEK293T),Activity (CHO [1]),Activity (CHO [2]),K (Ovis aries [3]) [nM],further results
COC(=O)CN(CC(=O)NCCCOCCOCCOCCCNC(=O)CCC(=O)Nc1ccc(CCN2CN(c3ccccc3)C3(CCN(CCCC(=O)c4ccc(F)cc4)CC3)C2=O)cc1)CC(=O)NCCCOCCOCCOCCCNC(=O)COc1ccc(CCCn2ncc3c2nc(N)n2nc(-c4ccco4)nc32)cc1,Active,Antagonist,Antagonist,,
Nc1nc2c(cnn2CCCc2ccc(OCC(=O)O)cc2)c2nc(-c3ccco3)nn12,,,Antagonist,,
O=C(O)CCC(=O)Nc1ccc(CCN2CN(c3ccccc3)C3(CCN(CCCC(=O)c4ccc(F)cc4)CC3)C2=O)cc1,,Active,,,
COC(=O)CN(CC(=O)NCCOCCOCCOCCOCCOCCNC(C)=O)CC(=O)NCCOCCOCCOCCOCCOCCNC(=O)CCC(=O)Nc1ccc(CCN2CN(c3ccccc3)C3(CCN(CCCC(=O)c4ccc(F)cc4)CC3)C2=O)cc1,,,,0.5,
COC(=O)CN(CC(=O)NCCOCCOCCOCCOCCOCCNC(=O)CCC(=O)Nc1ccc(CCN2CN(c3ccccc3)C3(CCN(CCCC(=O)c4ccc(F)cc4)CC3)C2=O)cc1)CC(=O)NCCOCCOCCOCCOCCOCCNC(=O)COc1ccc(CCCn2ncc3c2nc(N)n2nc(-c4ccco4)nc32)cc1,Active,Antagonist,Antagonist,0.13,K (Ovis aries [4]): 2.1 nM; K (Ovis aries [5]): 36 nM; K (Ovis aries [6]): 1.7 nM
COC(=O)CN(CC(=O)NCCOCCOCCNC(=O)CCC(=O)Nc1ccc(CCN2CN(c3ccccc3)C3(CCN(CCCC(=O)c4ccc(F)cc4)CC3)C2=O)cc1)CC(=O)NCCOCCOCCNC(=O)COc1ccc(CCCn2ncc3c2nc(N)n2nc(-c4ccco4)nc32)cc1,Active,,,,

# From ChEMBL document CHEMBL5042516, “Heterobivalent Ligand for the Adenosine A2A-Dopamine D2 Receptor Heteromer” (J Med Chem, 2022)
